Assay [1] deals with Tb-labeled inactive PDGFRβ (Homo sapiens (Human), UniProt P09619). The experiment in a line: biochemical. It is filed as binding. To be noted: read-out: PDGFR Lantha IC50.
Assay [2] deals with His6-TEV-PDGFRβ (557-1016) (Homo sapiens (Human), UniProt P09619). Kind of assay: PDGFRβ HTRF Assay. To be noted: 800 μM ATP, 0.5 μM TK-substrate biotin peptide, 30 min pre-incubation, 3 hours reaction; read-out: PDGFR HTRF IC50. The class given is biochemical. On the procedure: Instrumentation: a. Compound liquid handling: LabCyte Echo; b. Reagent liquid handling: Thermo Scientific Multidrop Combi; c. BMG PHERAStar multilabel plate reader.
Protein Reagent: His6-TEV-PDGFRβ Protein Prep prepared at Accelagen.
Assay buffer stock solution, contains 50 mM Hepes, 10 mM MgCl2, 1 mM EGTA, and 0.01% Brij-35, 0.01% ovalbumin, 2 mM DTT at pH 7.5, in molecular biology grade water. Store at room temperature.
Assay buffer. Dilute 5× Kinase buffer 5-fold with molecular biology grade water and add DTT to 2 mM and ovalbumin to 0.1 mg/mL (or 0.01%).
2× protein solution. Make a working solution of […] PDGFRβ in assay buffer. Keep on ice until use to maintain enzyme stability.
2× substrate solution. Make a working solution of 1.6 mM ATP and 1 μM TK-substrate biotin peptide in assay buffer. 3× quench/detection solution.
Step 2. PDGFRβ E+I pre-incubation: Add 2 μL 2× protein solution to columns 1-24 using the Multidrop Combi. Centrifuge at 1000 rpm for 1 min. Incubate 30 min at RT
Step 2. Enzymatic reaction: Add 2 μL substrate solution to columns 1-24 to initiate the reaction using the Multidrop Combi; cover/seal the assay plate to reduce evaporation. Centrifuge at 1000 rpm for 1 min. Incubate at room temperature for 3 hours.
Final concentrations of components in PDGFRp cascade assay:
0.5 μM TK-substrate biotin peptide
Step 3. Quench/Detection: Add 2 μl 3× quench/detection solution to columns 1-24 using the Multidrop Combi; cover/seal the plate. Centrifuge 1 min 1000 rpm. Incubate at RT for 60 min.
HTRF ratio values calculated by the instrument (Ratio is acceptor counts/donor counts*10,000) is exported from the plate reader and used in data analysis. The exported data will be used to calculate 1) compound activity and 2) assay statistics. […] Assay statistics can include Robust Z′ and Signal to Background.
% Inhibition Calculation: Percent inhibition will be calculated for sample wells based on the equation: […]
IC50 Calculation: For IC50 determination, full 11-point dose response data will be processed using the following equation: […]

The target in a further assay is VEGFR2, unphosphorylated (Homo sapiens (Human), UniProt P35968). Kind of assay: VEGFR ADP GLO assay. The class given is biochemical. To be noted: 5 nM VEGFR2, 1.2 mM ATP, 1 mg/mL Srctide, 180 min. A digest of the protocol: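 Unphosphorylated kinase (10 nM 2× solution) pre-incubated 30 min at RT with compounds (11-point, 3-fold, top 10 µM), then reacted 180 min with srctide and ATP (2×: 2 mg/mL, 2.4 mM) in HEPES pH 7.5 buffer. ADP read by luminescence. IC50 from 4-parameter fit, normalized to DMSO and 1 µM TAK-593.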
On the technique in general: ADP-Glo first removes unused ATP, then detects ADP through luciferase.

Another assay deals with PDGFRβ (Rattus norvegicus (Rat), UniProt Q05030). Kind of assay: PDGFRβ Cellular Assay (PDGFRb P-Y751 HTRF, PDGF-BB stimulated A10 cells). To be noted: A10 cells, 3 hours compound, 15 ng/mL PDGFbb for 10 minutes; read-out: PDGFR Cellular IC50. It is filed as cell-based. Put shortly:
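Rat A10 cells plated overnight were treated with compound for 3 h, stimulated with rat PDGF-BB (working stock 100 ng/mL in 10% FBS medium) for 10 min, then lysed.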
In general terms: TR-FRET usually uses a lanthanide donor and a delayed reading to cut background.

The results in this text go back to patent US20240360134A1, “PYRAZOLOPYRIMIDINES AND THEIR USES AS PDGFR INHIBITORS” (priority 2021, published 2024).

Some results are limits rather than exact numbers.

By IC50 is commonly meant the midpoint of a concentration-inhibition curve.

Chain of PDGFRβ (Q05030 whole entry, looked up): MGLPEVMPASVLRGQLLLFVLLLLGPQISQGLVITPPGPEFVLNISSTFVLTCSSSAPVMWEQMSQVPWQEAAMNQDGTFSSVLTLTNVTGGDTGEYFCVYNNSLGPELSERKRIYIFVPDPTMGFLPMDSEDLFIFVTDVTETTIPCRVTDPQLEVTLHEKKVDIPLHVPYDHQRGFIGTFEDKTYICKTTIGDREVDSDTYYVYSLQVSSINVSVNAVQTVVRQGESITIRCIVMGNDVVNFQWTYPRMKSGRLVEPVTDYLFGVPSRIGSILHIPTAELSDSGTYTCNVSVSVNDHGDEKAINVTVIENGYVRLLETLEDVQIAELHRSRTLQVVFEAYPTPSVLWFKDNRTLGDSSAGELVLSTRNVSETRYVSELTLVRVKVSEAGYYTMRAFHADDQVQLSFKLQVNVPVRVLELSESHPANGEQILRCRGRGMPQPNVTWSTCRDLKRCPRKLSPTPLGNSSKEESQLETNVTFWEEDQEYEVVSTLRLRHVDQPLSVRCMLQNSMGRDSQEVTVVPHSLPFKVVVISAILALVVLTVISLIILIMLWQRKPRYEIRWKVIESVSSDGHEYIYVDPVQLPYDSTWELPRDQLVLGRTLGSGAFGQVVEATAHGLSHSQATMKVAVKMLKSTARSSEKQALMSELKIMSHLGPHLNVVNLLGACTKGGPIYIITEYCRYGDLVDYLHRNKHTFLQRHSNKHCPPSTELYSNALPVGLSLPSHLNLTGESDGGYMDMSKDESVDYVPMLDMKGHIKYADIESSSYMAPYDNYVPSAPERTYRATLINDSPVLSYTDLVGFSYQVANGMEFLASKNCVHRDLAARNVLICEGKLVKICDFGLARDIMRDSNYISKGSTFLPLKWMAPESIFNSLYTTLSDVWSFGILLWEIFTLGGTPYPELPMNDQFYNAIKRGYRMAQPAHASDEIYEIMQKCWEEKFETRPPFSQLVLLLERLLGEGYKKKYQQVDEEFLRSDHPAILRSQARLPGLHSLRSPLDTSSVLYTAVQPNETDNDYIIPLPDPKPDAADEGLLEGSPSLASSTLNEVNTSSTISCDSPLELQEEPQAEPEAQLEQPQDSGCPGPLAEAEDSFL
Chain of VEGFR2, unphosphorylated (P35968 whole entry, looked up): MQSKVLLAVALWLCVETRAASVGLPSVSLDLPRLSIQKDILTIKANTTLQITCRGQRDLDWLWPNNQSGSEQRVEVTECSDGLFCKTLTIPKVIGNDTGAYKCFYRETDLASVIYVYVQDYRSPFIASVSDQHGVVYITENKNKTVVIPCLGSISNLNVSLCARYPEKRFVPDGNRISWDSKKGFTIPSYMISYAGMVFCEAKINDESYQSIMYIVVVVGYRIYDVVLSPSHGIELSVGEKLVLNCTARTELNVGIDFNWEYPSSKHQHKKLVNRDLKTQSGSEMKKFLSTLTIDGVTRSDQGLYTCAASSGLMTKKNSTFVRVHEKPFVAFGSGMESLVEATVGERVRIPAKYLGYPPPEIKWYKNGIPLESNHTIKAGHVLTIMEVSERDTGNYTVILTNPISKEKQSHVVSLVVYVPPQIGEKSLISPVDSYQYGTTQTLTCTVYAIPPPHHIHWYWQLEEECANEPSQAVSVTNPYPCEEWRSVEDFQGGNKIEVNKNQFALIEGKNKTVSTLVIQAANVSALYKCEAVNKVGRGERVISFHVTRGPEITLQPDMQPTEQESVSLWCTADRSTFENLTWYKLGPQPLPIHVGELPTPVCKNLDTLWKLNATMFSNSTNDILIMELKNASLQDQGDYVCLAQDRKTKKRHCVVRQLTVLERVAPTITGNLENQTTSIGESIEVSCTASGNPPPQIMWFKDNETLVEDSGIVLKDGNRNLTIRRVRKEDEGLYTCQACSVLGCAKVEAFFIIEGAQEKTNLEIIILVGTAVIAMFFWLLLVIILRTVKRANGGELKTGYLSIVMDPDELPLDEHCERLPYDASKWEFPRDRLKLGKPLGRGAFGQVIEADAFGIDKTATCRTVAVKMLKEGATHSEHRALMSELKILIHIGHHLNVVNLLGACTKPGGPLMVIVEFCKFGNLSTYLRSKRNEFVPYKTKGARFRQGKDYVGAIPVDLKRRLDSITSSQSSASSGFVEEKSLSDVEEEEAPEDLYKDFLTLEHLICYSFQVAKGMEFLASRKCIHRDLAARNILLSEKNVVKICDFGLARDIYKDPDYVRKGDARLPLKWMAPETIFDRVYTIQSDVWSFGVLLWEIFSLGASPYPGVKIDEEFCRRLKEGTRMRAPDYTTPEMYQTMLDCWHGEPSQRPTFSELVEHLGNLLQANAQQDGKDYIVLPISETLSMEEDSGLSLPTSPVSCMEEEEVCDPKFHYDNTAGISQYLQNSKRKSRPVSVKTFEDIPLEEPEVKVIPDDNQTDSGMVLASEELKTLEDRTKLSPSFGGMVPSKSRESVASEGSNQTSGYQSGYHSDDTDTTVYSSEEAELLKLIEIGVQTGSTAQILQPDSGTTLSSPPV
Chain of His6-TEV-PDGFRβ (557-1016) (P09619 whole entry, looked up): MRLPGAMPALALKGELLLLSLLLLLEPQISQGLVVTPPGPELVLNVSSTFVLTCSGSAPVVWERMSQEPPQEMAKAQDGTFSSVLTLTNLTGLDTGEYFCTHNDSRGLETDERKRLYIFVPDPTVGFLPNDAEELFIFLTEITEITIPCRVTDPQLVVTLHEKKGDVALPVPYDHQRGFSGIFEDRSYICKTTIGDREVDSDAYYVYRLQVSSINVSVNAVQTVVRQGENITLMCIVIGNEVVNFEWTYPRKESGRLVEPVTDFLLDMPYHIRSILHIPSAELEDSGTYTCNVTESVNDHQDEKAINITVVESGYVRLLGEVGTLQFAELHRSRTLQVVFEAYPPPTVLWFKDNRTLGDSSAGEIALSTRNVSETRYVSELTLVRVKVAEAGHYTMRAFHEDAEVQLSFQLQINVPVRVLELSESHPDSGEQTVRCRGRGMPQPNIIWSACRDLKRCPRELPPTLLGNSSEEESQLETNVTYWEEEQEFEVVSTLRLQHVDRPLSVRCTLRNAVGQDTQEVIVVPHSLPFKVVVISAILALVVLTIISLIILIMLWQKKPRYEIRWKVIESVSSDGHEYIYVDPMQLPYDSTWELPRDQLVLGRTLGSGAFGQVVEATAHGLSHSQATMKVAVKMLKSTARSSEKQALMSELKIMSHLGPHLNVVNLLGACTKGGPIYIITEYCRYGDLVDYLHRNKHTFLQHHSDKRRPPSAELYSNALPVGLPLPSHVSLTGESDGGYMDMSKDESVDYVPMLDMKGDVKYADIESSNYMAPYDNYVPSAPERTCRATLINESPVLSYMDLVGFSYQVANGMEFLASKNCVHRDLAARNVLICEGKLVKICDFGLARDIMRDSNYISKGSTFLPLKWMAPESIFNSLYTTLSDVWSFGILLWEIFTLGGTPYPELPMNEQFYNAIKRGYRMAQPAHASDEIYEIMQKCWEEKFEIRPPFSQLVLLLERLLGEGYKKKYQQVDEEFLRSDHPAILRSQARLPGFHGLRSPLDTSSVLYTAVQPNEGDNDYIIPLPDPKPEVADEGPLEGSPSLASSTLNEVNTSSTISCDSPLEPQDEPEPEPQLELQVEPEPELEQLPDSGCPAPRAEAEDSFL
Chain of Tb-labeled inactive PDGFRβ (P09619 whole entry, looked up): as above

Turning to `Cc1ncc(C(=O)NCCN2CCC(C)(C)C2)cc1Nc1nn(C)c2nc(Nc3cncnc3)ncc12` [Example 8, N-(2-(3,3-dimethylpyrrolidin-1-yl)ethyl)-6-methyl-5-((1-methyl-6-(pyrimidin-5-ylamino)-1H-pyrazolo[3,4-d]pyrimidin-3-yl)amino)nicotinamide], the IC50 in assay [1] is 5.8 nM; in assay [2], 0.39 nM; at VEGFR2, unphosphorylated, more than 7500 nM; on PDGFRβ it was 48 nM.
Regarding `CC(=O)Nc1cc(Nc2ncc3c(Nc4cc(C(=O)NCCN5CCCC5(C)C)cnc4C)nn(C)c3n2)ccn1` [Example 100, 5-((6-((2-acetamidopyridin-4-yl)amino)-1-methyl-1H-pyrazolo[3,4-d]pyrimidin-3-yl)amino)-N-(2-(2,2-dimethylpyrrolidin-1-yl)ethyl)-6-methylnicotinamide], the IC50 stood at 2.8 nM in assay [1]; 0.39 nM in assay [2]; 5420 nM against VEGFR2, unphosphorylated; 93.1 nM at PDGFRβ.
Regarding `Cc1ncc(C(=O)NCCN2CCCC2(C)C)cc1Nc1nn(C)c2nc(Nc3cccc(C(C)(C)C(=O)O)c3)ncc12` [Example 47, 2-(3-((3-((5-((2-(2,2-dimethylpyrrolidin-1-yl)ethyl)carbamoyl)-2-methylpyridin-3-yl)amino)-1-methyl-1H-pyrazolo[3,4-d]pyrimidin-6-yl)amino)phenyl)-2-methylpropanoic acid], the IC50 in assay [1] was 14.6 nM; in assay [2], 2.58 nM; against VEGFR2, unphosphorylated it was 2420 nM; on PDGFRβ, more than 3000 nM.
Consider `Cc1ncc(C(=O)NCCN2CCC3(CC3)C2)cc1Nc1nn(C)c2nc(Nc3cnn(C)c3)ncc12` [Example 90, N-(2-(5-azaspiro[2.4]heptan-5-yl)ethyl)-6-methyl-5-((1-methyl-6-((1-methyl-1H-pyrazol-4-yl)amino)-1H-pyrazolo[3,4-d]pyrimidin-3-yl)amino)nicotinamide], for which the concentration for half-maximal inhibition (IC50) in assay [1] is 1.8 nM; in assay [2], 0.25 nM; against VEGFR2, unphosphorylated, more than 7500 nM; at PDGFRβ, 27.2 nM.
For `Cc1ncc(C(=O)NCCN(C)C2CCCC2)cc1Nc1nn(C)c2nc(Nc3cncnc3)ncc12` [Example 9, N-(2-(cyclopentyl(methyl)amino)ethyl)-6-methyl-5-((1-methyl-6-(pyrimidin-5-ylamino)-1H-pyrazolo[3,4-d]pyrimidin-3-yl)amino)nicotinamide], the IC50 in assay [1] is 7 nM; in assay [2] it was 0.59 nM; against VEGFR2, unphosphorylated it was more than 7500 nM; on PDGFRβ, 36.5 nM.
For `Cn1cc(Nc2ncc3c(Nc4cc(C(=O)NCCN5CCC6(CC6)C5)ccc4F)nn(C)c3n2)cn1` [Example 122, N-(2-(5-azaspiro[2.4]heptan-5-yl)ethyl)-4-fluoro-3-((1-methyl-6-((1-methyl-1H-pyrazol-4-yl)amino)-1H-pyrazolo[3,4-d]pyrimidin-3-yl)amino)benzamide], in that order: 1.2 nM, 0.15 nM, more than 7500 nM and 4.6 nM.
For `Cc1ncc(C(=O)NCCN2CCC[C@@H]2C)cc1Nc1nn(C)c2nc(Nc3cnn(C)c3C)ncc12` [Example 155, (S)-5-((6-((1,5-dimethyl-1H-pyrazol-4-yl)amino)-1-methyl-1H-pyrazolo[3,4-d]pyrimidin-3-yl)amino)-6-methyl-N-(2-(2-methylpyrrolidin-1-yl)ethyl)nicotinamide], in that order: 15.5 nM, 1.98 nM, more than 7500 nM and 169 nM.
Turning to `Cc1ncc(NC(=O)CN2CCCC2)cc1Nc1nn(C)c2nc(Nc3cnn(C)c3)ncc12` [Example 138, N-(6-methyl-5-((1-methyl-6-((1-methyl-1H-pyrazol-4-yl)amino)-1H-pyrazolo[3,4-d]pyrimidin-3-yl)amino)pyridin-3-yl)-2-(pyrrolidin-1-yl)acetamide], the IC50 in assay [1] is 2.1 nM; in assay [2], 0.24 nM; at VEGFR2, unphosphorylated, more than 7500 nM; at PDGFRβ it was 3.2 nM.
